The experiment deals with T1, full length active recombinant SYK enzyme (Homo sapiens, UniProt P43405).
T1 construct: full length active recombinant SYK enzyme (Millipore, Calif.); purchased Millipore
The experiment is described as follows: Inhibition of Syk tyrosine phosphorylation activity (LANCE TR-FRET kinase assay). It is filed as biochemical. Particulars: activity in the Syk assays, class symbols. An excerpt:
The in vitro and in vivo human Syk activities of the inventive compounds can be determined by various procedures known in the art, such as a test for their ability to inhibit the activity of human plasma Syk. […] The IC50 value is the concentration (in nM) of the compound required to provide 50% inhibition of human Syk proteolytic activity.
An in vitro assay for detecting and measuring inhibition activity against Syk is as follows:
Inhibition of Syk Tyrosine Phosphorylation Activity
Potency of candidate molecules for inhibiting Syk tyrosine phosphorylation activity is assessed by measuring the ability of a test compound to inhibit Syk-mediated tyrosine phosphorylation of a Syk-specific substrate.
SYK tyrosine phosphorylation activity is measured using the LANCE™ Technology developed by Perkin Elmer Life and Analytical Sciences (Boston, Mass.). LANCE™ refers to homogeneous time resolved fluorometry applications using techniques such as time-resolved fluorescence resonance energy transfer assay (TR-FRET) (see generally for procedures in Perkin Elmer Application Note-How to Optimize a Tyrosine Kinase Assay Using Time Resolved Fluorescence-Based LANCE Detection, wwww.perkinelmer.com/lifesciences). The assay principle involves detection of a phosphorylated substrate using energy transfer from a phosphospecific europium-labeled antibody to streptavidin-allophycocyanin as an acceptor.
To test the ability of candidate molecules to inhibit SYK tyrosine phosphorylation activity, molecules are reconstituted in 30% DMSO and serially diluted 1:3 with the final dilution containing DMSO in the absence of the candidate molecule. The final DMSO concentration in the assay is 3%. Kinase assays are performed as a two part reaction. The first reaction is a kinase reaction and which comprises of a candidate molecule, full length active recombinant SYK enzyme (Millipore, Calif.) and biotin-labeled SYK-specific substrate biotin-DEEDYESP-OH. The second reaction involves termination of the kinase reaction and the simultaneous addition of the detection reagents-europium-labeled anti-phosphotyrosine reagent (Eu-W1024-PY100, Perkin Elmer, Boston, Mass.) and Streptavidin-Allophycocyanin detection reagent (SA-APC, Prozyme, CA). The kinase reaction is performed in a black U-bottom 96-well microtitre plate. The final reaction volume is 50 μL and contains a final concentration of 1 nM active SYK enzyme, 550 nM SYK-substrate, and 100 μM ATP diluted in a buffer containing 50 mM Tris pH 7.5, 5 mM MgCl2, and 1 mM DTT. The reaction is allowed to proceed for 1 hour at room temperature. The quench buffer contains 100 mM Tris pH 7.5, 300 mM NaCl2, 20 mM EDTA, 0.02% Brij35, and 0.5% BSA. The detection reagents are added to the reaction mixture at the following dilutions-1:500 for Eu-W1024-PY100 and 1:250 for SA-APC. The kinase reaction is terminated by the addition of 50 μL quench buffer containing the detection reagents. The detection is allowed to proceed for 1 hr at room temperature. Detection of the phosphorlated substrate in the absence and presence of inhibitors is measured in the TR-FRET instrument, Analyst HT (Molecular Probes, Sunnyvale, Calif.) and the condition for measurements are set up using CriterionHost Release 2.0 (Molecular Probes, Sunnyvale, Calif.). The settings used are a follows: excitation 360 nm, emission 665-7.5 nm, beam splitter 350 nm 50/50, flash 100 pulses, delay 60 us, integration 400 us, z-height 2 mm. Inhibition of SYK-tyrosine kinase activity is calculated as the maximum response observed in the presence of inhibitor, compared to that in the absence of inhibitor. IC50s were derived by non-linear regression analysis.
Regarding `NC(=O)c1ncc(N[C@@H](C(N)=O)C2CC2)nc1Nc1cnc2ccccc2c1` [Example 68, (R)-5-(2-amino-1-cyclopropyl-2-oxoethylamino)-3-(quinolin-3-ylamino)pyrazine-2-carboxamide], the IC50 is 1 to 10 nM.

Take `Cc1ccc(Nc2nc(N[C@H](CC(C)C)C(N)=O)cnc2C(N)=O)cc1` [Example 69, (R)-5-(1-amino-4-methyl-1-oxopentan-2-ylamino)-3-(p-tolylamino)pyrazine-2-carboxamide]: the IC50 was in the range of 10 to 100 nM.

On to `CC(C)C[C@@H](Nc1cnc(C(N)=O)c(Nc2cncc(F)c2)n1)C(N)=O` [Example 70, (R)-5-(1-amino-4-methyl-1-oxopentan-2-ylamino)-3-(5-fluoropyridin-3-ylamino)pyrazine-2-carboxamide], for which the IC50 was in the range of 10 to 100 nM.

For the compound `CC(C)C[C@@H](Nc1cnc(C(N)=O)c(Nc2ccc(-n3cccn3)cc2)n1)C(N)=O` [Example 71], the half-inhibitory concentration (IC50) fell in the range of 10 to 100 nM.

For `NC(=O)c1ncc(N[C@H](C2CC2)C2(N)CC2)nc1Nc1cccc(-c2ncccn2)c1` [Example 72, (R)-5-((1-aminocyclopropyl)(cyclopropyl)methylamino)-3-(3-(pyrimidin-2-yl)phenylamino)pyrazine-2-carboxamide], the half-maximal inhibitory concentration (IC50) lay within 1 to 10 nM.

In the case of `CC[C@@H](Nc1cnc(C(N)=O)c(Nc2cnc3ccccc3c2)n1)C(N)=O` [Example 73, (R)-5-(1-amino-1-oxobutan-2-ylamino)-3-(quinolin-3-ylamino)pyrazine-2-carboxamide], the IC50 fell in the range of 1 to 10 nM.

Consider `CC[C@@H](Nc1cnc(C(N)=O)c(Nc2ccc3ncccc3c2)n1)C(N)=O` [Example 74, (R)-5-(1-amino-1-oxobutan-2-ylamino)-3-(quinolin-6-ylamino)pyrazine-2-carboxamide], for which the IC50 was 1 to 10 nM.

For `CC[C@@H](Nc1cnc(C(N)=O)c(Nc2csc3ncccc23)n1)C(N)=O` [Example 75, (R)-5-(1-amino-1-oxobutan-2-ylamino)-3-(thieno[2,3-b]pyridin-3-ylamino)pyrazine-2-carboxamide], the IC50 lay in the range of 1 to 10 nM.

In the case of `NC(=O)c1ncc(N[C@@H](C(N)=O)C2CC2)nc1Nc1ccc2ncccc2c1` [Example 76, (R)-5-(2-amino-1-cyclopropyl-2-oxoethylamino)-3-(quinolin-6-ylamino)pyrazine-2-carboxamide], the IC50 lay in the range of 1 to 10 nM.

Regarding `CC[C@@H](Nc1cnc(C(N)=O)c(Nc2cc(C)cc(C)c2)n1)C(N)=O` [Example 77, (R)-5-(1-amino-1-oxobutan-2-ylamino)-3-(3,5-dimethylphenylamino)pyrazine-2-carboxamide], the IC50 fell in the range of 1 to 10 nM.

Regarding `Cc1ccc(Nc2nc(N[C@@H]3CCOC[C@@H]3N)cnc2C(N)=O)cc1` [Example 78, 5-((3R,4R)-3-aminotetrahydro-2H-pyran-4-ylamino)-3-(p-tolylamino)pyrazine-2-carboxamide], the IC50 fell in the range of 1 to 10 nM.

On to `NC(=O)c1ncc(N[C@@H]2CCOC[C@@H]2N)nc1Nc1cnc2ccccc2c1` [Example 79, 5-((3R,4R)-3-aminotetrahydro-2H-pyran-4-ylamino)-3-(quinolin-3-ylamino)pyrazine-2-carboxamide], for which the IC50 was 1 to 10 nM.

Turning to `CC[C@@H](Nc1cnc(C(N)=O)c(Nc2ccc(-n3ccnc3)cc2)n1)C(N)=O` [Example 80, (R)-3-(4-(1H-imidazol-1-yl)phenylamino)-5-(1-amino-1-oxobutan-2-ylamino)-pyrazine-2-carboxamide], the half-maximal inhibitory concentration (IC50) fell in the range of 1 to 10 nM.

As for `NC(=O)c1ncc(N[C@@H]2CCOC[C@@H]2N)nc1Nc1cccc(-n2nccn2)c1` [Example 81, 3-(3-(2H-1,2,3-triazol-2-yl)phenylamino)-5-((3R,4R)-3-aminotetrahydro-2H-pyran-4-ylamino)pyrazine-2-carboxamide], the IC50 was less than 1 nM.

Turning to `NC(=O)c1ncc(N[C@@H]2CCOC[C@@H]2N)nc1Nc1cccc(-c2ncccn2)c1` [Example 82, 5-((3R,4R)-3-aminotetrahydro-2H-pyran-4-ylamino)-3-(3-(pyrimidin-2-yl)phenylamino)pyrazine-2-carboxamide], the IC50 lay within 1 to 10 nM.

Take `Cc1cncc(Nc2nc(N[C@H](CC(C)C)C(N)=O)cnc2C(N)=O)c1` [Example 83, (R)-5-(1-amino-4-methyl-1-oxopentan-2-ylamino)-3-(5-methylpyridin-3-ylamino)pyrazine-2-carboxamide]: the IC50 fell in the range of 1 to 10 nM.

Regarding `Cc1cc(Nc2nc(N[C@H](CC(C)C)C(N)=O)cnc2C(N)=O)ccn1` [Example 84, (R)-5-(1-amino-4-methyl-1-oxopentan-2-ylamino)-3-(2-methylpyridin-4-ylamino)pyrazine-2-carboxamide], the half-inhibitory concentration (IC50) lay in the range of 1 to 10 nM.

`CC(C)C[C@@H](Nc1cnc(C(N)=O)c(Nc2ccc(C(F)(F)F)nc2)n1)C(N)=O` [Example 85, (R)-5-(1-amino-4-methyl-1-oxopentan-2-ylamino)-3-(6-(trifluoromethyl)pyridin-3-ylamino)pyrazine-2-carboxamide]: the IC50 lay within 10 to 100 nM.

In the case of `Cc1ccc(Nc2nc(N[C@H](CC(C)C)C(N)=O)cnc2C(N)=O)cn1` [Example 86, (R)-5-(1-amino-4-methyl-1-oxopentan-2-ylamino)-3-(6-methylpyridin-3-ylamino)pyrazine-2-carboxamide], the IC50 lay within 10 to 100 nM.

`CC(C)C[C@@H](Nc1cnc(C(N)=O)c(Nc2cccc(-c3ccncc3)c2)n1)C(N)=O` [Example 87, (R)-5-(1-amino-4-methyl-1-oxopentan-2-ylamino)-3-(3-(pyridin-4-yl)phenylamino)pyrazine-2-carboxamide]: the IC50 lay within 1 to 10 nM.

Regarding `CC(C)C[C@@H](Nc1cnc(C(N)=O)c(Nc2ccc(-c3ccccn3)cc2)n1)C(N)=O` [Example 88, (R)-5-(1-amino-4-methyl-1-oxopentan-2-ylamino)-3-(4-(pyridin-2-yl)phenylamino)pyrazine-2-carboxamide], the IC50 was 1 to 10 nM.

In the case of `CC(C)C[C@@H](Nc1cnc(C(N)=O)c(Nc2ccc3c(c2)CCC(=O)N3C)n1)C(N)=O` [Example 89, (R)-5-(1-amino-4-methyl-1-oxopentan-2-ylamino)-3-(1-methyl-2-oxo-1,2,3,4-tetrahydroquinolin-6-ylamino)pyrazine-2-carboxamide], the IC50 was in the range of 1 to 10 nM.

Regarding `CN1C(=O)CCc2cc(Nc3nc(N[C@@H]4CCCC[C@@H]4N)cnc3C(N)=O)ccc21` [Example 90, 5-((1R,2S)-2-aminocyclohexylamino)-3-(1-methyl-2-oxo-1,2,3,4-tetrahydroquinolin-6-ylamino)pyrazine-2-carboxamide], the IC50 fell in the range of 1 to 10 nM.

`COc1cc(Nc2nc(N[C@H]3CCCC[C@@H]3N)cnc2C(N)=O)cc(OC)c1` [Example 93, 5-(((1S,2S)-2-aminocyclohexyl)amino)-3-((3,5-dimethoxyphenyl)amino)pyrazine-2-carboxamide]: the IC50 fell in the range of 1 to 10 nM.

Regarding `CC(C)C[C@@H](Nc1nc(Nc2cnc3ccccc3c2)cnc1C(N)=O)C(N)=O` [Example 95, (R)-3-(1-amino-4-methyl-1-oxopentan-2-ylamino)-5-(quinolin-3-ylamino)pyrazine-2-carboxamide], the IC50 is greater than 1000 nM.

Consider `NC(=O)c1ncc(Nc2cccc(-n3nccn3)c2)nc1N[C@@H]1CCCC[C@@H]1N` [Example 96, 5-(3-(2H-1,2,3-triazol-2-yl)phenylamino)-3-((1R,2S)-2-aminocyclohexylamino)pyrazine-2-carboxamide], for which the IC50 lay in the range of 10 to 100 nM.

As for `CC[C@@H](Nc1cnc(C(N)=O)c(-n2cnc(-c3ccc(N)cc3)c2)n1)C(N)=O` [Example 97, (R)-5-(1-amino-1-oxobutan-2-ylamino)-3-(4-(4-aminophenyl)-1H-imidazol-1-yl)pyrazine-2-carboxamide], the IC50 is greater than 1000 nM.

With `CC(C)C[C@@H](Nc1cnc(C(N)=O)c(Nc2cccc(-c3ccccn3)c2)n1)C(N)=O` [Example 98, (R)-5-(1-amino-4-methyl-1-oxopentan-2-ylamino)-3-(3-(pyridin-2-yl)phenylamino)pyrazine-2-carboxamide], the IC50 fell in the range of 10 to 100 nM.

Values taken from US9359308B2, “Pyrazine kinase inhibitors” (Portola Pharmaceuticals, Inc., priority 2011, dated 2016).
